# Experimental data published in the supplement of paper PMC11781733.
# Structures can show the parent of a compound that is named as a salt.
# Assays:
# Conditions in all cases: exposure time: 15 min to 3 h acute
# [1] = tested on: Dugesia japonica; test: crawl-out incidence (% planarians); higher = higher incidence or increase relative to vehicle control
# Description: (§1)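 Adult asexual Dugesia japonica planarians (1 per well, 48-well plate, n=24 over technical triplicates) were exposed acutely (15 min to 3 h) to each compound (0.5% DMSO or water vehicle) and screened on a robotic platform for crawl-out, stickiness, body shape, phototaxis, noxious-heat scrunching and locomotion endpoints. Binary endpoints are incidence rate x100. Continuous endpoints are the median response normalised to the plate vehicle median, as % change or difference. Negative incidences after vehicle subtraction were set to 0.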
# [2] = tested on: Dugesia japonica; test: speed in dark vs vehicle (% change vs vehicle); higher = higher incidence or increase relative to vehicle control
# Description: as §1, with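 “x100 normalised to in-plate vehicle controls.” for “x100.”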
# [3] = tested on: Dugesia japonica; test: C-shape incidence (% planarians (vehicle-normalised)); higher = higher incidence or increase relative to vehicle control
# Description: as §1, with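 “x100 normalised to in-plate vehicle controls.” for “x100.”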
# [4] = tested on: Dugesia japonica; test: corkscrew incidence (% planarians (vehicle-normalised)); higher = higher incidence or increase relative to vehicle control
# Description: as §1, with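 “x100 normalised to in-plate vehicle controls.” for “x100.”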
# [5] = tested on: Dugesia japonica; test: stickiness incidence (% planarians (vehicle-normalised)); higher = higher incidence or increase relative to vehicle control
# Description: as §1, with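 “x100 normalised to in-plate vehicle controls.” for “x100.”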
# [6] = tested on: Dugesia japonica; test: hyperkinesis incidence (% planarians (vehicle-normalised)); higher = higher incidence or increase relative to vehicle control
# Description: as §1, with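 “x100 normalised to in-plate vehicle controls.” for “x100.”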
# [7] = tested on: Dugesia japonica; test: speed first 30 s blue light vs vehicle (% change vs vehicle); higher = higher incidence or increase relative to vehicle control
# Description: as §1, with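 “x100 normalised to in-plate vehicle controls.” for “x100.”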
# [8] = tested on: Dugesia japonica; test: speed second 30 s blue light vs vehicle (% change vs vehicle); higher = higher incidence or increase relative to vehicle control
# Description: as §1, with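 “x100 normalised to in-plate vehicle controls.” for “x100.”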
# [9] = tested on: Dugesia japonica; test: pharynx extrusion incidence (% planarians (vehicle-normalised)); higher = higher incidence or increase relative to vehicle control
# Description: as §1, with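 “x100 normalised to in-plate vehicle controls.” for “x100.”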
# [10] = tested on: Dugesia japonica; test: loss of phototaxis incidence (% planarians (vehicle-normalised)); higher = higher incidence or increase relative to vehicle control
# Description: as §1, with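 “x100 normalised to in-plate vehicle controls.” for “x100.”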
# [11] = tested on: Dugesia japonica; test: total locomotor bursts minus vehicle (bursts difference vs vehicle); higher = higher incidence or increase relative to vehicle control
# Description: as §1, with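 “x100 normalised to in-plate vehicle controls.” for “x100.”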
# [12] = tested on: Dugesia japonica; test: noxious heat displacement strength vs vehicle (% change vs vehicle); higher = higher incidence or increase relative to vehicle control
# Description: as §1, with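 “x100 normalised to in-plate vehicle controls.” for “x100.”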
# [13] = tested on: Dugesia japonica; test: contracted body shape incidence (% planarians (vehicle-normalised)); higher = higher incidence or increase relative to vehicle control
# Description: as §1, with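 “x100 normalised to in-plate vehicle controls.” for “x100.”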
# [14] = tested on: Dugesia japonica; test: anxiety (time in outer well region) vs vehicle (% change vs vehicle); higher = higher incidence or increase relative to vehicle control
# Description: as §1, with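 “x100 normalised to in-plate vehicle controls.” for “x100.”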
# [15] = tested on: Dugesia japonica; test: any abnormal body shape incidence (% planarians (vehicle-normalised)); higher = higher incidence or increase relative to vehicle control
# Description: as §1, with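 “x100 normalised to in-plate vehicle controls.” for “x100.”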
# [16] = tested on: Dugesia japonica; test: resting fraction in dark vs vehicle (difference in fraction x100 vs vehicle); higher = higher incidence or increase relative to vehicle control
# Description: as §1, with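 “x100 normalised to in-plate vehicle controls.” for “x100.”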
# [17] = tested on: Dugesia japonica; test: loss of heat-induced scrunching incidence (% planarians (vehicle-normalised)); higher = higher incidence or increase relative to vehicle control
# Description: as §1, with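 “x100 normalised to in-plate vehicle controls.” for “x100.”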
# [18] = tested on: Dugesia japonica; test: resting fraction in blue light vs vehicle (difference in fraction x100 vs vehicle); higher = higher incidence or increase relative to vehicle control
# Description: as §1, with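 “x100 normalised to in-plate vehicle controls.” for “x100.”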
Compound,crawl-out incidence [1],speed in dark [2],C-shape incidence [3],corkscrew incidence [4],stickiness incidence [5],hyperkinesis incidence [6],speed first 30 s blue light [7],speed second 30 s blue light [8],pharynx extrusion incidence [9],loss of phototaxis incidence [10],total locomotor bursts minus vehicle [11],noxious heat displacement strength [12],contracted body shape incidence [13],anxiety [14],any abnormal body shape incidence [15],resting fraction in dark [16],loss of heat-induced scrunching incidence [17],resting fraction in blue light [18]
CNCC[C@H](Oc1cccc2ccccc12)c1cccs1 [s-duloxetine] (3.16 µM),0,70.8,0,0,16.7,0,167,68.4,0,≤ 0,-2.5,-40.2,0,12,0,-19,25,-12.5
O=C(CCCN1CCC(O)(c2ccc(Cl)cc2)CC1)c1ccc(F)cc1 [haloperidol] (10 µM),16.7,-47.5,0,10,≤ 0,10,-57.5,-53.4,0,20,11.5,-26.4,5,-0.48,20,15.2,25,8.2
CN1CC(=O)N=C1NC(=O)Nc1cccc(Cl)c1 [fenobam] (562 µM),0,-21.3,0,0,≤ 0,0,-24.4,-18.3,0,≤ 0,2.75,-39.8,0,-14.4,0,0.55,≤ 0,1.05
Cc1ncc2n1-c1ccc(Cl)cc1C(c1ccccc1F)=NC2 [midazolam] (17.8 µM),0,-14.7,0,0,≤ 0,33.3,-3.83,-2.19,0,≤ 0,1,-19.1,0,-7.26,33.3,1.03,≤ 0,-0.5
CN[C@H]1CC[C@@H](c2ccc(Cl)c(Cl)c2)c2ccccc21 [sertraline hydrochloride] (31.6 µM),4.17,-31.9,0,0,4.35,4.35,-36,-42.3,0,≤ 0,6.5,3.64,0,1.57,4.35,-19.3,47.8,4.64
CN(C)CCC[C@@]1(c2ccc(F)cc2)OCc2cc(C#N)ccc21 [escitalopram] (100 µM),0,-3.87,0,0,≤ 0,0,-13.7,-2.15,0,16.7,1.75,-34,0,1.47,0,-4.57,25,-0.46
CN1CC(=O)N=C1NC(=O)Nc1cccc(Cl)c1 [fenobam] (316 µM),0,-12.6,0,0,≤ 0,0,-14.2,-16.9,0,≤ 0,0,-32.2,0,-0.1,0,0,≤ 0,0.18
CN(C)CCC[C@@]1(c2ccc(F)cc2)OCc2cc(C#N)ccc21 [escitalopram] (316 µM),0,-24.6,0,0,≤ 0,50,-31.5,-35.5,0,≤ 0,16,-39.8,0,1.26,50,-1.78,25,-0.69
O=C(CCCN1CC=C(n2c(=O)[nH]c3ccccc32)CC1)c1ccc(F)cc1 [droperidol] (10 µM),0,-80,20.8,12.5,≤ 0,25,-93.8,-91.1,0,54.2,19.5,-23.3,29.2,-31.9,70.8,68.7,70.8,67.9
O=C(CCCN1CCC(O)(c2ccc(Br)cc2)CC1)c1ccc(F)cc1 [bromperidol] (10 µM),25,-40.7,0,42.9,≤ 0,52.4,-49.8,-60.1,0,≤ 0,8,-32.1,4.76,7.64,66.7,50.5,47.6,38
Cc1cc2c(s1)Nc1ccccc1N=C2N1CCN(C)CC1 [olanzapine] (31.6 µM),4.17,-71.9,4.17,16.7,16.7,62.5,-93.9,-89.9,0,17.4,6,-52.3,,24.7,75,78.3,75,77.7
Cc1cc2c(s1)Nc1ccccc1N=C2N1CCN(C)CC1 [olanzapine] (10 µM),0,-68,4.17,,≤ 0,58.3,-85.6,-80.9,0,4.17,20,-28.1,0,-12.4,58.3,72.3,58.3,63.5
